Results reported in US20230348376A1 (TEIJIN PHARMA LIMITED, priority 2020, published 2023).
Where two headings read alike, the source gives them in different places. Blank lines part the entries; values can stand above or below the compound they belong to.

What was measured:
[1] = test system: rat oligodendrocyte progenitor cells; assay: Promotive activity of rat oligodendrocyte progenitor cell differentiation-2 (immunostaining of MBP); assay type: cell-based; conditions: vitamin D derivative 2 μM, T3 30 nM, 4 days
Experimental: The promotive activity of oligodendrocyte progenitor cell (OPC) differentiation of the vitamin D derivatives was evaluated by immunostaining of MBP.
Subsequently, oligodendrocyte progenitor cell separation medium was added to the flask, and the mixture was similarly shaken for about 22 hours (37° C., 200 rpm), and the supernatant was collected to prepare oligodendrocyte progenitor cells.

[2] = Evaluation of brain penetration in mice (blood and brain concentration at brain Cmax); assay type: in vivo, mouse; conditions: 1 mg/kg single oral dose, C57BL/6J mice; for Concentration in blood (mean ± SD) at brain Cmax / Concentration in brain (mean ± SD) at brain Cmax: n=3; for Kp: male, C57BL/6J, mouse, brain/plasma, po, 1 mg/kg, read-out: Concentration in brain/in blood ratio at brain Cmax
Experimental: The administration solution was administered orally to C57BL/6J mice (8 weeks old, male, n=3) at a single dose (1 mg/kg). Mice were euthanized at 6 points of 0.25, 0.5, 1, 2, 4, and 8 hours after administration, and plasma and brain sampling were performed. After preparing a homogenate from the collected brain using Tissue Lyser II (QIAGEN #85300), acetonitrile was added to the homogenate and the homogenate was centrifuged (12000 rpm, 5 minutes) to extract the administered test compound contained in the brain. Similarly, the plasma was subjected to addition of acetonitrile and centrifugal separation to extract the administered test compound contained in the plasma. Each extracted sample was subjected to measurement of the concentration of administered test compound using LC/MS/MS (SHIMADZU UFLC/MS/MS (8050)).
Test 2 [0.2 mg/kg Administration Study] […] The administration solution was administered orally to C57BL/6J mice (8 weeks old, male, n=3) at a single dose (0.2 mg/kg). Mice were euthanized at 6 points of 0.25, 0.5, 1, 2, 4, and 8 hours after administration, and plasma and brain sampling were performed. After preparing a homogenate from the collected brain using Tissue Lyser II (QIAGEN #85300), acetonitrile was added to the homogenate and the homogenate was centrifuged (12000 rpm, 5 minutes) to extract the administered compound contained in the brain. Similarly, the plasma was subjected to addition of acetonitrile and centrifugal separation to extract the administered test compound contained in the plasma. Each extracted sample was subjected to measurement of the concentration of administered test compound using LC/MS/MS (SHIMADZU UFLC/MS/MS (8050)).

human VDR = molecular target: T1, human VDR (Homo sapiens, UniProt P11473); assay: Evaluation of VDR transcription activity in human osteoblasts (HOS cells), luciferase reporter; conditions: HOS cells transfected with human VDR, human RXRα and DR3 luciferase reporter, 21 hours
T1 sequence (P11473 1-427): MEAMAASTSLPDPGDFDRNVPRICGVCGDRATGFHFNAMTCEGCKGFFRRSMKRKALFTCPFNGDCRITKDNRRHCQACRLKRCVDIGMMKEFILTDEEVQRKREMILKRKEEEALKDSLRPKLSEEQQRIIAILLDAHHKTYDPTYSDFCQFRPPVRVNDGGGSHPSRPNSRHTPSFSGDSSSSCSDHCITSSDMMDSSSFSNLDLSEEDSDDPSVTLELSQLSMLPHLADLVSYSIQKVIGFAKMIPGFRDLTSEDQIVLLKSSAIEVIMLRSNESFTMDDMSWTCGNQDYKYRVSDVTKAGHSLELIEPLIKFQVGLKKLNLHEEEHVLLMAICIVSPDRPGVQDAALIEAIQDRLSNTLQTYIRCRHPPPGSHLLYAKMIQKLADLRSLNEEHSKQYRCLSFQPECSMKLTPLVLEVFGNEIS
T1 sequence (P19793 1-462 partner): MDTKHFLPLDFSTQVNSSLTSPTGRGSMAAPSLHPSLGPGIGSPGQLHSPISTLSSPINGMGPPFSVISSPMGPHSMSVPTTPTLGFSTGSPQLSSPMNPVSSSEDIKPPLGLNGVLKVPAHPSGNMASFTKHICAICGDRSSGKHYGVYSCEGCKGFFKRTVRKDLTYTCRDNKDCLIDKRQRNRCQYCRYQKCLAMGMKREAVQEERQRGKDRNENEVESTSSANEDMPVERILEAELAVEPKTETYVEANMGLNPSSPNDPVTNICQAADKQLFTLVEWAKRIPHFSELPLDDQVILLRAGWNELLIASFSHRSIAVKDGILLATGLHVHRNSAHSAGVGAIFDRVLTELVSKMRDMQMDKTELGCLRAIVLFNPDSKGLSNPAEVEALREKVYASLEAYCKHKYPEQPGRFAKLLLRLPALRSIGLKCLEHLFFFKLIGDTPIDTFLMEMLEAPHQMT

[3] = Activity (EC50, VDR transcription activity)

Compound: C=C1/C(=C\C=C2/CCC[C@]3(C)[C@@H]([C@H](C)CN4CCOC[C@H]4C)CC[C@@H]23)C[C@@H](O)C[C@H]1O [Compound I005, (1R,3R,Z)-5-(2-((1R,3aS,7aR,E)-7a-methyl-1-((S)-1-((R)-3-methylmorpholino)propan-2-yl)octahydro-4H-inden-4-ylidene)ethylidene)-4-methylenecyclohexane-1,3-diol]
- Mean (number of MBP-positive cells/number of Hoechst33342-positive cells) ([1]; Test 4): 0.43

Compound: C=C1/C(=C\C=C2/CCC[C@]3(C)[C@@H]([C@H](C)CN4CCOCC4(C)C)CC[C@@H]23)C[C@@H](O)C[C@@H]1O [Compound F006, (1R,3S,Z)-5-(2-((1R,3aS,7aR,E)-1-((S)-1-(3,3-dimethylmorpholino)propan-2-yl)-7a-methyloctahydro-4H-inden-4-ylidene)ethylidene)-4-methylenecyclohexane-1,3-diol]
- Mean (number of MBP-positive cells/number of Hoechst33342-positive cells) ([1]; Test 4): 0.44

Compound: C=C1/C(=C\C=C2/CCC[C@]3(C)[C@@H]([C@H](C)CN4CCCC[C@@H]4C)CC[C@@H]23)C[C@@H](O)C[C@H]1O [Compound I001, (1R,3R,Z)-5-(2-((1R,3aS,7aR,E)-7a-methyl-1-((S)-1-((S)-2-methylpiperidin-1-yl)propan-2-yl)octahydro-4H-inden-4-ylidene)ethylidene)-4-methylenecyclohexane-1,3-diol]
- Mean (number of MBP-positive cells/number of Hoechst33342-positive cells) ([1]; Test 9): 0.30

Compound: COC(C)(C)[C@@H]1CCCN1C[C@@H](C)[C@H]1CC[C@H]2/C(=C/C=C3C[C@@H](O)C[C@H](O)C3)CCC[C@]12C [Compound G016, (1R,3R)-5-(2-((1R,3aS,7aR,E)-1-((S)-1-((S)-2-(2-methoxypropan-2-yl)pyrrolidin-1-yl)propan-2-yl)-7a-methyloctahydro-4H-inden-4-ylidene)ethylidene)cyclohexane-1,3-diol]
- Mean (number of MBP-positive cells/number of Hoechst33342-positive cells) ([1]; Test 7): 0.37

Compound: C=C1/C(=C\C=C2/CCC[C@]3(C)[C@@H]([C@H](C)CN4CCC[C@@H]4C(C)(C)O)CC[C@@H]23)C[C@@H](O)C[C@@H]1O [Compound F013, (1R,3S,Z)-5-(2-((1R,3aS,7aR,E)-1-((S)-1-((R)-2-(2-hydroxypropan-2-yl)pyrrolidin-1-yl)propan-2-yl)-7a-methyloctahydro-4H-inden-4-ylidene)ethylidene)-4-methylenecyclohexane-1,3-diol]
- Mean (number of MBP-positive cells/number of Hoechst33342-positive cells) ([1]; Test 9): 0.31

Compound: C=C1/C(=C\C=C2/CCC[C@]3(C)[C@@H]([C@H](C)CN4CCOC[C@@H]4C)CC[C@@H]23)C[C@@H](O)C[C@H]1O [Compound I004, (1R,3R,Z)-5-(2-((1R,3aS,7aR,E)-7a-methyl-1-((S)-1-((S)-3-methylmorpholino)propan-2-yl)octahydro-4H-inden-4-ylidene)ethylidene)-4-methylenecyclohexane-1,3-diol]
- Mean (number of MBP-positive cells/number of Hoechst33342-positive cells) ([1]; Test 4): 0.44

Compound: C=C1[C@H](O)CC(=C/C=C2\CCC[C@]3(C)[C@@H]([C@H](C)CN4CCC[C@@H]4C(C)(C)OC)CC[C@@H]23)C[C@H]1O [Compound H015, (1R,3R)-5-(2-((1R,3aS,7aR,E)-1-((S)-1-((R)-2-(2-methoxypropan-2-yl)pyrrolidin-1-yl)propan-2-yl)-7a-methyloctahydro-4H-inden-4-ylidene)ethylidene)-2-methylenecyclohexane-1,3-diol]
- Mean (number of MBP-positive cells/number of Hoechst33342-positive cells) ([1]; Test 8): 0.34

Compound: C=C1/C(=C\C=C2/CCC[C@]3(C)[C@@H]([C@H](C)CN4CCN(C)C[C@@H]4C)CC[C@@H]23)C[C@@H](O)C[C@@H]1O [Compound F011, (1R,3S,Z)-5-(2-((1R,3aS,7aR,E)-1-((S)-1-((S)-2,4-dimethylpiperazin-1-yl)propan-2-yl)-7a-methyloctahydro-4H-inden-4-ylidene)ethylidene)-4-methylenecyclohexane-1,3-diol]
- Mean (number of MBP-positive cells/number of Hoechst33342-positive cells) ([1]; Test 5): 0.26

Compound: C[C@H](CCN1CCCC[C@@H]1C)[C@H]1CC[C@H]2/C(=C/C=C3C[C@@H](O)C[C@H](O)C3)CCC[C@]12C [Compound G017, (1R,3R)-5-(2-((1R,3aS,7aR,E)-7a-methyl-1-((R)-4-((S)-2-methylpiperidin-1-yl)butan-2-yl)octahydro-4H-inden-4-ylidene)ethylidene)cyclohexane-1,3-diol]
- Mean (number of MBP-positive cells/number of Hoechst33342-positive cells) ([1]; Test 6): 0.52

Compound: C=C1/C(=C\C=C2/CCC[C@]3(C)[C@@H]([C@H](C)CN4CCCC[C@@H]4C)CC[C@@H]23)C[C@@H](O)C[C@@H]1O [Compound F001, (1R,3S,Z)-5-(2-((1R,3aS,7aR,E)-7a-methyl-1-((S)-1-((S)-2-methylpiperidin-1-yl)propan-2-yl)octahydro-4H-inden-4-ylidene)ethylidene)-4-methylenecyclohexane-1,3-diol]
- Mean (number of MBP-positive cells/number of Hoechst33342-positive cells) ([1]; Test 7): 0.29

Compound: C=C1/C(=C\C=C2/CCC[C@]3(C)[C@@H]([C@H](C)CN4CCOC[C@@H]4C4CC4)CC[C@@H]23)C[C@@H](O)C[C@@H]1O [Compound F008, (1R,3 S,Z)-5-(2-((1R,3aS,7aR,E)-1-((S)-1-((S)-3-cyclopropylmorpholino)propan-2-yl)-7a-methyloctahydro-4H-inden-4-ylidene)ethylidene)-4-methylenecyclohexane-1,3-diol]
- Mean (number of MBP-positive cells/number of Hoechst33342-positive cells) ([1]; Test 5): 0.45

- Concentration in blood (mean ± SD) at brain Cmax [2]: 167 ± 29 nM
- Concentration in brain (mean ± SD) at brain Cmax [2]: 241 ± 21 pmol/g
- Kp [2]: 1.44
- EC50 (human VDR; [3]): 10 to 100 nM
Compound: C=C1[C@H](O)CC(=C/C=C2\CCC[C@]3(C)[C@@H]([C@H](C)CN4CCC(CC(F)F)CC4)CC[C@@H]23)C[C@H]1O [Compound C059, (1R,3R)-5-(2-((1R,3aS,7aR,E)-1-((S)-1-(4-(2,2-difluoroethyl)piperidin-1-yl)propan-2-yl)-7a-methyloctahydro-4H-inden-4-ylidene)ethylidene)-2-methylenecyclohexane-1,3-diol]

- Concentration in brain/in blood ratio at brain Cmax [2]: 0.25
- Concentration in blood (mean ± SD) at brain Cmax [2]: 444 ± 113 nM
- Concentration in brain (mean ± SD) at brain Cmax [2]: 109 ± 22 pmol/g
- EC50 (human VDR; read-out: Activity (EC50, VDR transcription activity)): < 1 nM
Compound: C[C@H](CN1CCC(O)(C(F)(F)F)C1)[C@H]1CC[C@H]2/C(=C/C=C3C[C@@H](O)C[C@H](O)C3)CCC[C@]12C (single isomer, unassigned) [Compound B045b]

- Concentration in blood (mean ± SD) at brain Cmax [2]: 132 ± 15 nM
- Concentration in brain (mean ± SD) at brain Cmax [2]: 101 ± 8 pmol/g
- Kp [2]: 0.77
- EC50 (human VDR; [3]): 1 to 10 nM
Compound: C[C@H](CN1CCC[C@](C)(O)C1)[C@H]1CC[C@H]2/C(=C/C=C3C[C@@H](O)C[C@H](O)C3)CCC[C@]12C [Compound C039, (1R,3R)-5-(2-((1R,3aS,7aR,E)-1-((S)-1-((S)-3-hydroxy-3-methylpiperidin-1-yl)propan-2-yl)-7a-methyloctahydro-4H-inden-4-ylidene)ethylidene)cyclohexane-1,3-diol]
